# According to US20150018311A1, “THERAPEUTIC BORON-CONTAINING COMPOUNDS” (priority 2012, published 2015):
# Experiments:
# Experiment in all cases: Growth in liquid media in presence of test compound
# Type in all cases: cell-based
# [1] = system: Mycobacterium tuberculosis (H37Rv)
# [2] = system: Staphylococcus aureus (ATCC 25923)
# [3] = system: Escherichia coli (ATCC 25922)
# [4] = system: Streptococcus pyogenes (ATCC 19615)
# [5] = system: Pseudomonas aeruginosa (ATCC 27853)
# [6] = system: Candida albicans (ATCC 90028)
SMILES,"Growth in the presence of test compound, M. tuberculosis ([1]; 5 mg/L)","Growth in the presence of test compound, M. tuberculosis ([1]; 50 mg/L)","Growth in the presence of test compound, M. tuberculosis ([1]; 500 mg/L)","Growth in the presence of test compound, S. aureus ([2]; 5 mg/L)","Growth in the presence of test compound, S. aureus ([2]; 50 mg/L)","Growth in the presence of test compound, S. aureus ([2]; 500 mg/L)","Growth in the presence of test compound, E. coli ([3]; 5 mg/L)","Growth in the presence of test compound, E. coli ([3]; 50 mg/L)","Growth in the presence of test compound, E. coli ([3]; 500 mg/L)","Growth in the presence of test compound, S. pyogenes ([4]; 5 mg/L)","Growth in the presence of test compound, S. pyogenes ([4]; 50 mg/L)","Growth in the presence of test compound, S. pyogenes ([4]; 500 mg/L)","Growth in the presence of test compound, P. aeruginosa ([5]; 5 mg/L)","Growth in the presence of test compound, P. aeruginosa ([5]; 50 mg/L)","Growth in the presence of test compound, P. aeruginosa ([5]; 500 mg/L)","Growth in the presence of test compound, C. albicans ([6]; 5 mg/L)","Growth in the presence of test compound, C. albicans ([6]; 50 mg/L)","Growth in the presence of test compound, C. albicans ([6]; 500 mg/L)"
CC1(C)C2CC3OB(C(CNC(=O)C(N)CCCCN)Cc4ccccc4)OC3(C)C1C2 (stereo not drawn) [Compound 13],+,−,−,+,+,−,+,+,−,+,+,−,+,+,−,+,+,−
CC1(C)C2CC3OB(C(CNC(=O)C(N)CCCCN)Cc4ccc(F)cc4)OC3(C)C1C2.Cl.Cl (stereo not drawn) [Compound 51],+,−,−,+,+,−,+,+,−,+,+,−,+,+,−,+,+,−
Cl.Cl.NCCCC[C@H](N)C(=O)NC[C@@H](Cc1ccc(F)cc1)B(O)O [Compound 46],−,−,−,+,+,+,+,+,+,+,+,+,+,+,+,+,+,±
CC1(C)C2CC3OB(CC(Cc4ccccc4)NC(=O)C(N)CCCCN)OC3(C)C1C2 (stereo not drawn) [Compound 44],+,+,−,+,+,−,+,+,−,+,+,−,+,+,−,+,+,±
Cl.N[C@@H](Cc1ccccc1)C(=O)NC[C@@H](Cc1ccc(OC(F)(F)F)cc1)B(O)O [Compound 57],+,−,−,+,+,+,+,+,±,+,+,−,+,+,−,+,+,−
CC1(C)C2CC3OB(CC(Cc4ccccc4)NC(=O)C(N)CCCCN)OC3(C)C1C2 (stereo not drawn) [Compound 54],+,+,−,+,+,−,+,+,−,+,+,−,+,+,−,+,+,−
CC1(C)C2CC3OB([C@@H](CNC(=O)[C@@H](N)Cc4ccccc4)Cc4ccc(F)cc4)O[C@]3(C)C1C2.Cl (stereo partly drawn) [Compound 49],±,−,−,+,+,+,+,+,+,+,+,+,+,+,+,+,+,+
Cl.Cl.NCCCC[C@@H](N)C(=O)NC[C@@H](Cc1ccccc1)B(O)O [Compound 48],±,−,−,+,+,+,+,+,+,+,+,+,+,+,+,+,+,+
CC1(C)C2CC3OB(C(CNC(=O)C(N)CCCCN)Cc4ccc(OC(F)(F)F)cc4)OC3(C)C1C2.Cl.Cl (stereo not drawn) [Compound 47],+,−,−,+,+,−,+,+,−,+,+,−,+,+,−,+,+,−
CC1(C)C2CC3OB([C@@H](CNC(=O)[C@@H](N)CCCCN)Cc4ccc5ccccc5c4)O[C@]3(C)C1C2 (stereo partly drawn) [Compound 21],−,−,−,+,±,+,+,+,+,+,+,±,+,+,±,+,+,±
